Measured values taken from PubChem BioAssay AID2060890 (Molecular Pharmacology Branch, DTP, NCI, 2025).
pIC50: −log10 of the molar value.

System: LG0703-F948-PDC complex spheroid viability
Test: Anticancer human tumor LG0703-F948-PDC patient-derived lung adenocarcinoma cell line growth inhibition [RAS]
Details: for pIC50: curve of first compound; for viability, T/C: stronger effect = lower value
In short: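 Tumour cells grown as complex spheroids with HUVEC endothelial cells and mesenchymal stem cells, treated with RAS pathway inhibitor combinations. Each agent spans half-log steps from near clinical Cmax, or 10 microM where Cmax is unknown.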

[1] = second compound 0.000949 µM, first compound 0.0316 µM
[2] = second compound 0.000949 µM, first compound 0.1 µM
[3] = second compound 0.000949 µM, first compound 0.316 µM
[4] = second compound 0.000949 µM, first compound 1 µM
[5] = second compound 0.000949 µM, first compound 3.16 µM
[6] = second compound 0.000949 µM, first compound 10 µM
[7] = second compound 0.003 µM, first compound 0.0316 µM
[8] = second compound 0.003 µM, first compound 0.1 µM
[9] = second compound 0.003 µM, first compound 0.316 µM
[10] = second compound 0.003 µM, first compound 1 µM
[11] = second compound 0.003 µM, first compound 3.16 µM
[12] = second compound 0.003 µM, first compound 10 µM
[13] = second compound 0.00949 µM, first compound 0.0316 µM
[14] = second compound 0.00949 µM, first compound 0.1 µM
[15] = second compound 0.00949 µM, first compound 0.316 µM
[16] = second compound 0.00949 µM, first compound 1 µM
[17] = second compound 0.00949 µM, first compound 3.16 µM
[18] = second compound 0.00949 µM, first compound 10 µM
[19] = second compound 0.03 µM, first compound 0.0316 µM
[20] = second compound 0.03 µM, first compound 0.1 µM
[21] = second compound 0.03 µM, first compound 0.316 µM
[22] = second compound 0.03 µM, first compound 1 µM
[23] = second compound 0.03 µM, first compound 3.16 µM
[24] = second compound 0.03 µM, first compound 10 µM
[25] = second compound 0.0949 µM, first compound 0.0316 µM
[26] = second compound 0.0949 µM, first compound 0.1 µM
[27] = second compound 0.0949 µM, first compound 0.316 µM
[28] = second compound 0.0949 µM, first compound 1 µM
[29] = second compound 0.0949 µM, first compound 3.16 µM
[30] = second compound 0.0949 µM, first compound 10 µM
[31] = second compound 0.3 µM, first compound 0.0316 µM
[32] = second compound 0.3 µM, first compound 0.1 µM
[33] = second compound 0.3 µM, first compound 0.316 µM
[34] = second compound 0.3 µM, first compound 1 µM
[35] = second compound 0.3 µM, first compound 3.16 µM
[36] = second compound 0.3 µM, first compound 10 µM
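Further: spheroids exposed to agents for 7 days.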
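Wherever viability, T/C is given: 100% = DMSO vehicle wells.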

Structure (SMILES): CC(C)NCC(C(=O)N1CCN(c2ncnc3c2C(C)CC3O)CC1)c1ccc(Cl)cc1 (centres undefined) + CCn1c(-c2cc(N3CCN(C)CC3)cnc2C(C)OC)c2c3cc(ccc31)-c1csc(n1)CC(NC(=O)C1CC1C)C(=O)N1CCCC(N1)C(=O)OCC(C)(C)C2
- pIC50 (second compound 0.000949 µM): 6.90
- pIC50 (second compound 0.003 µM): 7.47
- pIC50 (second compound 0.00949 µM): > 7.50
- pIC50 (second compound 0.03 µM): > 7.50
- pIC50 (second compound 0.0949 µM): > 7.50
- pIC50 (second compound 0.3 µM): > 7.50
- viability, T/C [1]: 64.1%
- viability, T/C [2]: 54%
- viability, T/C [3]: 37.1%
- viability, T/C [4]: 30%
- viability, T/C [5]: 17.6%
- viability, T/C [6]: 14.5%
- viability, T/C [7]: 51%
- viability, T/C [8]: 35%
- viability, T/C [9]: 18%
- viability, T/C [10]: 13.1%
- viability, T/C [11]: 12.7%
- viability, T/C [12]: 8.04%
- viability, T/C [13]: 23.2%
- viability, T/C [14]: 16.7%
- viability, T/C [15]: 10.3%
- viability, T/C [16]: 7.8%
- viability, T/C [17]: 6.46%
- viability, T/C [18]: 3.27%
- viability, T/C [19]: 11.7%
- viability, T/C [20]: 13.7%
- viability, T/C [21]: 7.73%
- viability, T/C [22]: 3.93%
- viability, T/C [23]: 3.49%
- viability, T/C [24]: 1%
- viability, T/C [25]: 10%
- viability, T/C [26]: 6.85%
- viability, T/C [27]: 4.55%
- viability, T/C [28]: 3.71%
- viability, T/C [29]: 1.27%
- viability, T/C [30]: 0.64%
- viability, T/C [31]: 9.37%
- viability, T/C [32]: 5.76%
- viability, T/C [33]: 5.01%
- viability, T/C [34]: 3.25%
- viability, T/C [35]: 1.87%
- viability, T/C [36]: 0.61%

Structure (SMILES): C=CC(=O)Nc1cc(Nc2nccc(-c3cn(C)c4ccccc34)n2)c(OC)cc1N(C)CCN(C)C + CCn1c(-c2cc(N3CCN(C)CC3)cnc2C(C)OC)c2c3cc(ccc31)-c1csc(n1)CC(NC(=O)C1CC1C)C(=O)N1CCCC(N1)C(=O)OCC(C)(C)C2
- pIC50 (second compound 0.000949 µM): 8.29
- pIC50 (second compound 0.003 µM): > 8.50
- pIC50 (second compound 0.00949 µM): > 8.50
- pIC50 (second compound 0.03 µM): > 8.50
- pIC50 (second compound 0.0949 µM): > 8.50
- pIC50 (second compound 0.3 µM): > 8.50
- viability, T/C (second compound 0.000949 µM, first compound 0.00316 µM): 62.6%
- viability, T/C (second compound 0.000949 µM, first compound 0.01 µM): 33%
- viability, T/C [1]: 17.7%
- viability, T/C [2]: 12.9%
- viability, T/C [3]: 11.6%
- viability, T/C [4]: 9.33%
- viability, T/C (second compound 0.003 µM, first compound 0.00316 µM): 30.5%
- viability, T/C (second compound 0.003 µM, first compound 0.01 µM): 18.5%
- viability, T/C [7]: 12.6%
- viability, T/C [8]: 10.9%
- viability, T/C [9]: 12.3%
- viability, T/C [10]: 8.1%
- viability, T/C (second compound 0.00949 µM, first compound 0.00316 µM): 24%
- viability, T/C (second compound 0.00949 µM, first compound 0.01 µM): 14.2%
- viability, T/C [13]: 12.6%
- viability, T/C [14]: 9.67%
- viability, T/C [15]: 8.83%
- viability, T/C [16]: 9.91%
- viability, T/C (second compound 0.03 µM, first compound 0.00316 µM): 14.1%
- viability, T/C (second compound 0.03 µM, first compound 0.01 µM): 13.1%
- viability, T/C [19]: 8.75%
- viability, T/C [20]: 7.03%
- viability, T/C [21]: 6.1%
- viability, T/C [22]: 4.67%
- viability, T/C (second compound 0.0949 µM, first compound 0.00316 µM): 9.07%
- viability, T/C (second compound 0.0949 µM, first compound 0.01 µM): 7.77%
- viability, T/C [25]: 5.22%
- viability, T/C [26]: 5.15%
- viability, T/C [27]: 5.21%
- viability, T/C [28]: 3.75%
- viability, T/C (second compound 0.3 µM, first compound 0.00316 µM): 7.47%
- viability, T/C (second compound 0.3 µM, first compound 0.01 µM): 9.59%
- viability, T/C [31]: 5.92%
- viability, T/C [32]: 5.32%
- viability, T/C [33]: 4.11%
- viability, T/C [34]: 2.62%

Structure (SMILES): Cc1nc(N2CCC3(CC2)COC(C)C3N)c(CO)nc1Sc1ccnc(N)c1Cl (centres undefined) + CCn1c(-c2cccnc2C(C)OC)c2c3cc(ccc31)N1CCOC(CC(NC(=O)C(C(C)C)N(C)C(=O)C3(F)CCN(C(=O)C#CC(C)(C)N(C)C)CC3)C(=O)N3CCCC(N3)C(=O)OCC(C)(C)C2)C1
- pIC50 (second compound 0.000949 µM): 6.26
- pIC50 (second compound 0.003 µM): 6.47
- pIC50 (second compound 0.00949 µM): 6.40
- pIC50 (second compound 0.03 µM): 6.41
- pIC50 (second compound 0.0949 µM): 6.85
- pIC50 (second compound 0.3 µM): > 7.50
- viability, T/C [1]: 100%
- viability, T/C [2]: 68.4%
- viability, T/C [3]: 61.6%
- viability, T/C [4]: 43.1%
- viability, T/C [5]: 24.8%
- viability, T/C [6]: 13%
- viability, T/C [7]: 87.8%
- viability, T/C [8]: 76%
- viability, T/C [9]: 47.8%
- viability, T/C [10]: 31.7%
- viability, T/C [11]: 24.4%
- viability, T/C [12]: 11.9%
- viability, T/C [13]: 93.1%
- viability, T/C [14]: 74.8%
- viability, T/C [15]: 52.7%
- viability, T/C [16]: 36.9%
- viability, T/C [17]: 21.5%
- viability, T/C [18]: 13.6%
- viability, T/C [19]: 70.2%
- viability, T/C [20]: 58.6%
- viability, T/C [21]: 52.1%
- viability, T/C [22]: 42.4%
- viability, T/C [23]: 16.9%
- viability, T/C [24]: 12.7%
- viability, T/C [25]: 73.2%
- viability, T/C [26]: 56.8%
- viability, T/C [27]: 35.2%
- viability, T/C [28]: 23.2%
- viability, T/C [29]: 13.5%
- viability, T/C [30]: 5.55%
- viability, T/C [31]: 34.1%
- viability, T/C [32]: 26.7%
- viability, T/C [33]: 22.8%
- viability, T/C [34]: 14.3%
- viability, T/C [35]: 6.25%
- viability, T/C [36]: 3.6%

Structure (SMILES): Nc1ccn(C2OC(CO)C(O)C2(F)F)c(=O)n1 (centres undefined)
- viability, T/C (compound 0.00316 µM): 73.4% [middle of 4 runs]
- viability, T/C (compound 0.0316 µM): 38.3% [middle of 4 runs]
- viability, T/C (compound 0.1 µM): 37.3% [middle of 4 runs]
- viability, T/C (compound 0.316 µM): 37.3% [middle of 4 runs]
- viability, T/C (compound 1 µM): 32.1% [middle of 4 runs]

Structure (SMILES): O=C(c1ccc(F)c(F)c1Nc1ccc(I)cc1F)N1CC(O)([C@@H]2CCCCN2)C1
- viability, T/C (compound 0.00316 µM): 96.7% [middle of 4 runs]
- viability, T/C (compound 0.01 µM): 73.4% [middle of 4 runs]
- viability, T/C (compound 0.0316 µM): 57.7% [middle of 4 runs]
- viability, T/C (compound 0.1 µM): 42.3% [middle of 4 runs]
- viability, T/C (compound 0.316 µM): 30.9% [middle of 4 runs]
- viability, T/C (compound 1 µM): 25.4% [middle of 4 runs]

Structure (SMILES): CC1(O)CCCC1n1c(=O)c(C(F)F)cc2cnc(NC3CCN(S(C)(=O)=O)CC3)nc21 (centres undefined) + CCn1c(-c2cccnc2C(C)OC)c2c3cc(ccc31)N1CCOC(CC(NC(=O)C(C(C)C)N(C)C(=O)C3(F)CCN(C(=O)C#CC(C)(C)N(C)C)CC3)C(=O)N3CCCC(N3)C(=O)OCC(C)(C)C2)C1
- pIC50 (second compound 0.000949 µM): < 5.00
- pIC50 (second compound 0.003 µM): 5.04
- pIC50 (second compound 0.00949 µM): 5.02
- pIC50 (second compound 0.03 µM): < 5.00
- pIC50 (second compound 0.0949 µM): 5.18
- pIC50 (second compound 0.3 µM): 5.39
- viability, T/C [1]: 112%
- viability, T/C [2]: 89.6%
- viability, T/C [3]: 97.3%
- viability, T/C [4]: 84.6%
- viability, T/C [5]: 85.4%
- viability, T/C [6]: 50%
- viability, T/C [7]: 114%
- viability, T/C [8]: 90.7%
- viability, T/C [9]: 108%
- viability, T/C [10]: 93.5%
- viability, T/C [11]: 82.2%
- viability, T/C [12]: 46.5%
- viability, T/C [13]: 88.9%
- viability, T/C [14]: 114%
- viability, T/C [15]: 94.1%
- viability, T/C [16]: 86.4%
- viability, T/C [17]: 87.5%
- viability, T/C [18]: 47.9%
- viability, T/C [19]: 112%
- viability, T/C [20]: 90.4%
- viability, T/C [21]: 90%
- viability, T/C [22]: 84.4%
- viability, T/C [23]: 87.8%
- viability, T/C [24]: 51.4%
- viability, T/C [25]: 90.5%
- viability, T/C [26]: 99.6%
- viability, T/C [27]: 85.8%
- viability, T/C [28]: 75.5%
- viability, T/C [29]: 78.6%
- viability, T/C [30]: 36%
- viability, T/C [31]: 54.8%
- viability, T/C [32]: 56.4%
- viability, T/C [33]: 58.2%
- viability, T/C [34]: 57.4%
- viability, T/C [35]: 62.3%
- viability, T/C [36]: 23.9%
